Assay results as given in ChEMBL document CHEMBL4145629, “Synthesis of Thymoquinone-Artemisinin Hybrids: New Potent Antileukemia, Antiviral, and Antimalarial Agents” (ACS Med Chem Lett, 2018).

How the values were obtained:
Plasmodium falciparum = experiment: Antiplasmodial activity against Plasmodium falciparum 3D7 ring stage parasites infected in human erythrocytes after 72 hrs by SYBR Green 1 dye based fluorescence assay; format: functional, organism-based; settings: 3D7, 72 h
CCRF-CEM = experiment: Cytotoxicity against human CCRF-CEM cells assessed as reduction in cell viability after 72 hrs by resazurin dye based assay; format: functional
ADR5000 cell line = experiment: Cytotoxicity against human CEM/ADR5000 cells overexpressing P-gp assessed as reduction in cell viability after 72 hrs by resazurin dye based assay; format: functional; settings: ADR5000, 72 h
HFF = experiment: Cytotoxicity against human HFF cells at 1 uM; format: cell-based
Human betaherpesvirus 5 [1] = experiment: Potency index, ratio of ganciclovir EC50 to compound EC50 for recombinant HCMV AD169 expressing GFP infected in human foreskin fibroblast; format: functional
Human betaherpesvirus 5 [2] = experiment: Potency index, ratio of artesunic acid EC50 to compound EC50 for recombinant HCMV AD169 expressing GFP infected in human foreskin fibroblast; format: functional

Compound | EC50 (Plasmodium falciparum) [nM] | EC50 (CCRF-CEM) [nM] | EC50 (ADR5000 cell line) [nM] | Activity (HFF) [%] | Ratio EC50 (Human betaherpesvirus 5 [1]) | Ratio EC50 (Human betaherpesvirus 5 [2])
CC1=C(CCCOC(=O)CCC(=O)O[C@@H]2O[C@@H]3O[C@@]4(C)CC[C@H]5[C@H](C)CC[C@@H]([C@H]2C)[C@@]35OO4)C(=O)C(C(C)C)=CC1=O | 6.9 | 500 | 1300 |  |  | 
CC1=C(CCCCOC(=O)CCC(=O)OCC(C[C@H]2O[C@@H]3O[C@@]4(C)CC[C@H]5[C@H](C)CC[C@@H]([C@H]2C)[C@@]35OO4)C[C@H]2O[C@@H]3O[C@@]4(C)CC[C@H]5[C@H](C)CC[C@@H]([C@H]2C)[C@@]35OO4)C(=O)C(C(C)C)=CC1=O (stereo partly specified) | 12.2 | 2.7 | 7870 | 50 |  | 
CC1=C(CCCOC2O[C@@H]3O[C@@]4(C)CC[C@H]5[C@H](C)CC[C@@H]([C@H]2C)[C@@]35OO4)C(=O)C(C(C)C)=CC1=O (stereo partly specified) | 5.9 | 200 | 200 |  | 5 | 8
CC1=C(CCOC(=O)CCC(=O)O[C@@H]2O[C@@H]3O[C@@]4(C)CC[C@H]5[C@H](C)CC[C@@H]([C@H]2C)[C@@]35OO4)C(=O)C(C(C)C)=CC1=O | 8.2 | 1200 | 1000 |  |  | 
CC1=C(CCCCOC(=O)CCC(=O)O[C@@H]2O[C@@H]3O[C@@]4(C)CC[C@H]5[C@H](C)CC[C@@H]([C@H]2C)[C@@]35OO4)C(=O)C(C(C)C)=C(CCCCOC(=O)CCC(=O)O[C@@H]2O[C@@H]3O[C@@]4(C)CC[C@H]5[C@H](C)CC[C@@H]([C@H]2C)[C@@]35OO4)C1=O | 12.1 | 6070 | 5660 | 50 |  | 
CC1=C(CCCCOC2O[C@@H]3O[C@@]4(C)CC[C@H]5[C@H](C)CC[C@@H]([C@H]2C)[C@@]35OO4)C(=O)C(C(C)C)=CC1=O (stereo partly specified) | 3.7 | 300 | 200 |  | 5 | 8
C[C@H]1[C@H](OC(=O)CCC(=O)O)O[C@@H]2O[C@@]3(C)CC[C@H]4[C@H](C)CC[C@@H]1[C@@]24OO3 [ARTESUNATE] | 8.2 | 400 | 100 |  |  | 
CC1=CC(=O)C(C(C)C)=CC1=O [THYMOQUINONE] | > 80000 |  |  |  |  | 
CC1=C(CCCCOC(=O)CCC(=O)O[C@@H]2O[C@@H]3O[C@@]4(C)CC[C@H]5[C@H](C)CC[C@@H]([C@H]2C)[C@@]35OO4)C(=O)C(C(C)C)=CC1=O | 7.7 | 1400 | 800 |  |  | 
CC1=C(CCCCOC(=O)C[C@H]2O[C@@H]3O[C@@]4(C)CC[C@H]5[C@H](C)CC[C@@H]([C@H]2C)[C@@]35OO4)C(=O)C(C(C)C)=CC1=O | 17.5 |  |  |  |  | 
CC1=C(CCCOC(=O)C[C@H]2O[C@@H]3O[C@@]4(C)CC[C@H]5[C@H](C)CC[C@@H]([C@H]2C)[C@@]35OO4)C(=O)C(C(C)C)=CC1=O | 54 |  |  |  |  | 
COc1cccc2c1C(=O)c1c(O)c3c(c(O)c1C2=O)C[C@@](O)(C(=O)CO)C[C@@H]3O[C@H]1C[C@H](N)[C@H](O)[C@H](C)O1 [DOXORUBICIN] |  | 9 | 23300 |  |  | 
CC1=C(CCCOC(=O)CC(=O)OCCOC(=O)CCC(=O)O[C@@H]2O[C@@H]3O[C@@]4(C)CC[C@H]5[C@H](C)CC[C@@H]([C@H]2C)[C@@]35OO4)C(=O)C(C(C)C)=CC1=O | 4.4 | 80 | 8200 |  |  | 
CC1=C(CCCOC(=O)CCC(=O)O[C@@H]2O[C@@H]3O[C@@]4(C)CC[C@H]5[C@H](C)CC[C@@H]([C@H]2C)[C@@]35OO4)C(=O)C(C(C)C)=C(CCCOC(=O)CCC(=O)O[C@@H]2O[C@@H]3O[C@@]4(C)CC[C@H]5[C@H](C)CC[C@@H]([C@H]2C)[C@@]35OO4)C1=O | 4.3 | 200 | 200 |  |  | 
